Measured values published in PubChem BioAssay (NCI).
Several values for one entry are separate records, joined by “and”; a condition that tells them apart may be missing. Equal entries are not always repeated.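 Cells were grown in 96-well plates and exposed to each compound for 48 hours at five concentrations; endpoints were interpolated linearly between bracketing concentrations, or set to the highest concentration if not reached. Abbreviation: GI50, concentration required for 50% inhibition of growth. TGI denotes the concentration required for complete inhibition of growth.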

How the values were obtained:
Test in all cases: NCI tumour cell line growth inhibition, 48 h
CAKI-1 renal = test system: CAKI-1 renal
HOP-62 NSCLC = test system: HOP-62 NSCLC
KM12 colon = test system: KM12 colon
MDA-MB-435 = test system: MDA-MB-435
MOLT-4 leukemia = test system: MOLT-4 leukemia
OVCAR-5 ovarian = test system: OVCAR-5 ovarian
SF-268 CNS = test system: SF-268 CNS
SK-MEL-28 melanoma = test system: SK-MEL-28 melanoma
SNB-75 CNS = test system: SNB-75 CNS
UO-31 renal = test system: UO-31 renal

| SMILES | GI50 (CAKI-1 renal) | TGI (CAKI-1 renal) [µM] | GI50 (HOP-62 NSCLC) | TGI (HOP-62 NSCLC) [µM] | GI50 (KM12 colon) | TGI (KM12 colon) [µM] | GI50 (MDA-MB-435) | TGI (MDA-MB-435) [µM] | GI50 (MOLT-4 leukemia) [µM] | TGI (MOLT-4 leukemia) [µM] | GI50 (OVCAR-5 ovarian) | TGI (OVCAR-5 ovarian) [µM] | GI50 (SF-268 CNS) | TGI (SF-268 CNS) [µM] | GI50 (SK-MEL-28 melanoma) | TGI (SK-MEL-28 melanoma) [µM] | GI50 (SNB-75 CNS) | TGI (SNB-75 CNS) [µM] | GI50 (UO-31 renal) | TGI (UO-31 renal) |
| --- | --- | --- | --- | --- | --- | --- | --- | --- | --- | --- | --- | --- | --- | --- | --- | --- | --- | --- | --- | --- |
| O=C(NN1C(=O)CSC12CCCC2)c1[nH]c2ccc(Br)cc2c1-c1ccccc1 | 32.8 µM | > 100 | 62.5 µM | > 100 | 28.5 µM | > 100 | 23.4 µM | 63.7 | 21.9 | 90.4 | > 100 µM | > 100 | 52.1 µM | > 100 | 44 µM | > 100 | 46.1 µM | > 100 | 59.1 µM | > 100 µM |
| CC1(C)CC(C)(C)C1=NNC(N)=O |  | > 100 |  | > 100 |  | > 100 |  | > 100 |  | > 100 |  | > 100 |  | > 100 |  | > 100 |  | > 100 |  | > 100 µM |
| COc1cccc(-n2ncc3c(N/N=C/c4ccncc4)ncnc32)c1 | 0.769 µM | > 25 | > 25 µM | > 25 | 2.9 µM | > 25 | 1.46 µM | > 25 | > 25 | > 25 | > 25 µM | > 25 | > 25 µM | > 25 | > 25 µM | > 25 | 2.48 µM | > 25 | 2.45 µM | > 25 µM |
| C/C=C(\C)C(=O)O[C@H]1C=CC(=O)O[C@@H]1CC[C@H](O)[C@H](C)O | 27.3 µM | 68.4 | > 100 µM | > 100 | 48.2 µM | > 100 | 34.6 µM | > 100 | 1.99 | > 100 | > 100 µM | > 100 | 28.8 µM | > 100 | 27.4 µM | 74.7 | 33.3 µM | 78.9 | 20.5 µM | > 67.4 µM |
| O=C(NC[C@H](O)CO)c1ccncc1Nc1ccc(I)cc1F | 0.59 µM and 1.38 µM | > 100 | 0.0472 µM and 0.298 µM | > 94 | 0.111 µM and 0.154 µM | > 100 | 0.00907 µM and 0.0257 µM | > 100 | > 79.9 | > 100 | 0.0104 µM and 0.0151 µM | > 100 | > 10 µM and 29.9 µM | > 100 | 0.00334 µM and < 0.0104 µM |  | > 10 µM and 33.2 µM | > 100 | 0.2 µM and 0.988 µM | > 10 µM and 20.3 µM |
| O=c1nc2oc3ccc4ccccc4c3cc-2s1 | 1.16 µM | > 100 | 4.7 µM | > 79 | 0.961 µM | > 100 | 0.259 µM | 0.783 | 1.81 | > 100 | > 100 µM | > 100 | 7.97 µM | > 100 | 14.6 µM | > 100 | 0.476 µM | 10.1 | 33.7 µM | > 100 µM |
| Cc1ccc(S(=O)(=O)Nc2cccc3[nH]c(C(F)(F)F)nc23)cc1 | 0.337 µM | 24.4 | 1.21 µM | 41.8 | 0.347 µM | 26.8 | 0.204 µM | > 100 | 0.605 | 29 | 1.85 µM | > 74.1 | 1.87 µM | 54.6 | 0.654 µM | > 92.8 | 0.314 µM | 2.45 | 1.3 µM | > 57.5 µM |
| C1CN(SSN2CCOCC2)CCO1 | 33.7 µM | > 100 | 78.5 µM | > 100 | 43.6 µM | > 100 | 33.8 µM | > 100 | 47.3 | > 100 | 39 µM | > 100 | 47.6 µM | > 100 | > 100 µM | > 100 | 44.1 µM | > 100 | 49.5 µM | > 100 µM |
| CCOc1ccccc1N=Nc1c(C)[nH]n(-c2nc(-c3ccccc3)cs2)c1=O | > 54.2 µM | > 100 | 35.1 µM | > 100 | > 100 µM | > 100 | > 100 µM | > 100 | > 100 | > 100 | > 100 µM | > 100 | 35.4 µM | > 100 | > 84.9 µM | > 100 | 14.3 µM | 48.3 | > 65.1 µM | > 100 µM |
| CC[C@H](CO)Nc1nc(NCc2ccccc2)n2ncc(C(C)C)c2n1 | 1.02 µM | 8.35 | 2.1 µM | 8.72 | 0.711 µM | 2.79 | 2.06 µM | 10.1 | 2.18 | 9.46 | 1.85 µM | 15 | 1.82 µM | 7.2 | 1.16 µM | 3.82 | 1.31 µM | 3.33 | 1.59 µM | > 100 µM |
| CN(C)c1ccc2c(c1)OC(N)=C(C#N)C2c1ccc2c(c1)CCO2 (stereo unspecified) | 0.147 µM | > 100 |  | > 76.7 | < 0.0309 µM | > 42 | < 0.0156 µM | 0.095 | 0.3 | 32.4 | 1.13 µM | > 100 | 0.524 µM | 97.4 | 1.92 µM | 29.5 | 0.0812 µM | > 49.4 | 0.362 µM | 35.4 µM |
| COc1c2c(nc3ccccc13)-c1cc3c(c(=O)n1C2)COC(=O)C3(O)CC(=O)N1CCOCC1 (stereo unspecified) |  | 54 |  | 20.7 |  | 57.5 |  | 76.9 |  | 5.03 |  | 63.1 |  | 26.7 |  | > 98.2 |  | 11.6 |  | 68.9 µM |
| O=C(Nc1ccc(Cl)c(Cl)c1)O/N=C\c1c(Cl)ccc([N+](=O)[O-])c1Cl | 1.67 µM | 3.38 | 3.07 µM | 11 | 1.62 µM | 3.21 | 1.9 µM | 4.43 | 2.23 | 5.46 | 1.86 µM | 3.84 | 2.81 µM | 9.63 | 2.1 µM | 4.22 | 2.12 µM | 9.5 | 1.45 µM | 2.88 µM |
| C/C=C(/C)C(=O)O[C@H](C[C@@H](C)[C@H]1CC(c2ccoc2)OC1=O)[C@@]1(C)C(=O)CCC2O[C@]21C (stereo partly specified) |  | > 100 |  |  |  | > 100 |  | > 100 |  | > 100 |  | > 100 |  |  |  | > 100 |  | > 100 |  | > 100 µM |
